Test [1] concerns the target T1, RARα (Homo sapiens, UniProt P10276).
T1 sequence (P10276 1-462): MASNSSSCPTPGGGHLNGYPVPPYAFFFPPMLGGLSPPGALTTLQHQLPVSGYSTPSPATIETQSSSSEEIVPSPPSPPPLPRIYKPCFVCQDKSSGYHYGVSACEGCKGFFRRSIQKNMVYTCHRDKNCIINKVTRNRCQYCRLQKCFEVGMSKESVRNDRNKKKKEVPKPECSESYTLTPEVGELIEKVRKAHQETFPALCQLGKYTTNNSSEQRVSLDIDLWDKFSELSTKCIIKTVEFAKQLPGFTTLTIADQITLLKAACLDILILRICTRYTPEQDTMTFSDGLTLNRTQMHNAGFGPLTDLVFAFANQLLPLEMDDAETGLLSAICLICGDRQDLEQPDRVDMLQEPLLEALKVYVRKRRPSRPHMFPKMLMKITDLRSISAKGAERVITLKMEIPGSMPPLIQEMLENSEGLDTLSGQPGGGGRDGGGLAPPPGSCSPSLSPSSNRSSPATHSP
The experiment in a line: Binding to baculovirus-expressed RARα. Details: made in house. Conditions: baculovirus-expressed receptor. From the text:
(§1) Prostate cancer is one of the most common cancers in European and American males and has a high mortality rate (Landis et al, 1998; Rosenthal, 1998). Early disease is managed conservatively in Europe although in selected patients surgery is curative. In advanced disease, androgen ablation can produce symptomatic improvement, but the tumour often re-emerges in an androgen- independent and incurable form. One proposed treatment for androgen-independent prostate carcinoma is differentiation ther- apy, in which agents such as all-trans-retinoic acid (ATRA), 9-cis- retinoic acid and 1, 25-dihydroxyvitamin D3 (D3 ) are used to induce growth arrest, differentiation and sometimes apoptosis of the tumour cells (Liang et al, 1999; de Vos et al, 1997; Skowronski et al, 1994; Hedlund et al, 1997). ATRA and synthetic analogues exert their biological effects by binding to two families of retinoid receptors, […]. These are ligand-dependent transcription factors of the steroid/thyroid hormone nuclear receptor superfamily (Chambon 1994; Boehm et al, 1995). Activated RARs bind to retinoic acid-responsive elements (RAREs) in the promoters of genes and thus regulate gene expression. They also antagonize the activity of the tran- scription factor AP1 and thereby down-regulate the expression of some AP1-activated genes (Nagpal et al, 1995). One approach to unravelling the contributions of RAR sub-types to these actions has been the development of synthetic retinoids with selective activities at individual RARs and RXRs. For example, the diaryl- acetylenic retinoids allow separation of transactivation and AP1 antagonism functions at RAR (Nagpal et al, 1995). Recently, compounds that are selective for particular RAR sub-types have been synthesized: these include both agonists and antagonists (Chandraratna, 1995; Teng et al, 1999; Johnson et al, 1999). The functional selectivity of these compounds may open the way to achieving differentiation or apoptosis of tumour cells with minimal systemic side effects (Chandraratna, 1995). Cell lines that are commonly used in the evaluation of investiga- tional agents for prostate cancer include LNCaP, DU-145 and PC- 3. […] These lines are relatively insensitive to growth inhibition and induction of apoptosis by ATRA and by synthetic agonists. […] Fenretinide (4HPR) induces apoptosis of LNCaP and of PC-3 cells at 1-5 M and 25 µM, respectively (Pienta et al, 1993; Heish and Wu, 1997). Pfahl and colleagues examined the growth inhibitory effects of a panel of receptor-selective retinoids against DU145 and PC-3 cells and achieved complete growth inhibition and induction of apoptosis between 1 M and 10 M (Lu et al, 1999). […] Antagonists of retinoic acid receptors (RARs) are potent growth inhibitors of prostate carcinoma cells LA Hammond1 , CH Van Krinks2 , J Durham2 , SE Tomkins2 , RD Burnett3 , EL Jones1 , RAS Chandraratna3 and G Brown2 Divisions of 1 Cancer Studies and of 2 Immunity and Infection, University of Birmingham Medical School, Edgbaston, Birmingham B15 2TT, UK and 3 Retinoid Research, Allergan Inc., Irvine, California, USA Summary Novel synthetic antagonists of retinoic acid receptors (RARs) have been developed. To avoid interference by serum retinoids when testing these compounds, we established serum-free grown sub-lines (>3 years) of the prostate carcinoma lines LNCaP, PC3 and DU145. […] A component(s) of serum and of LNCaP-conditioned medium diminishes the activity of antagonists: this factor is not the most likely candidates IGF-1 and EGF. In vitro studies of RAR antagonists together with data from RAR-null mice lead to the hypothesis that RAR-regulated gene transcription is necessary for the survival and maintenance of prostate epithelium. […]

Test [2] concerns the target T2, RARβ (Homo sapiens, UniProt P10826).
T2 sequence (P10826 1-455): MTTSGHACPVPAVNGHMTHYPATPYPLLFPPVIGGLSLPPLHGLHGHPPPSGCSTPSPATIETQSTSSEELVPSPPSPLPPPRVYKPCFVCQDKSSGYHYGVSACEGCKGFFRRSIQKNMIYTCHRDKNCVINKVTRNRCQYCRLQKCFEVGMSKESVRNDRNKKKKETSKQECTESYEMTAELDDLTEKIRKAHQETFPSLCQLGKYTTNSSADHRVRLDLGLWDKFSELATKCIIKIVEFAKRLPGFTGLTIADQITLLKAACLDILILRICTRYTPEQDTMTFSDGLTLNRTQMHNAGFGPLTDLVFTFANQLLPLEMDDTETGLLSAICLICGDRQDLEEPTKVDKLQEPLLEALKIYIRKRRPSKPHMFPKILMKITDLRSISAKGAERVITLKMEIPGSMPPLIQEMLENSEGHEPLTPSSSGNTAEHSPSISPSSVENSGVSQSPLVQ
The experiment in a line: Binding to baculovirus-expressed RARβ. Also on record: made in house. Conditions: baculovirus-expressed receptor.
From the text: as §1

In test [3] the target is T3, RARγ (Homo sapiens, UniProt P13631).
T3 sequence (P13631 1-454): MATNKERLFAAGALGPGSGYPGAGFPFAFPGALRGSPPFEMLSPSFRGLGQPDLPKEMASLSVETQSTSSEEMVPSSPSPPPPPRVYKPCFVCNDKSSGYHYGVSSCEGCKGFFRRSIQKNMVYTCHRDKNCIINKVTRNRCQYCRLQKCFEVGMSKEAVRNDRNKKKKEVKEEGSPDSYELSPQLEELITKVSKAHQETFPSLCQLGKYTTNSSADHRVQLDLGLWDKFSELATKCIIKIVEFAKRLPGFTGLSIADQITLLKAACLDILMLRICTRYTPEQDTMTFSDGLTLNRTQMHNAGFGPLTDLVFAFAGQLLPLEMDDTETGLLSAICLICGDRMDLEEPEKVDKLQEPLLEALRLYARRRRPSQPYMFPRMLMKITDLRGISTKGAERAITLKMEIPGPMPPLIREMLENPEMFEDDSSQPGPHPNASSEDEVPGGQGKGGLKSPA
The experiment in a line: Binding to baculovirus-expressed RARγ. Details: made in house. As to conditions: baculovirus-expressed receptor.
From the text: as §1

In test [4] the target is T1, RARα. The experiment in a line: Transactivation by RARα in doubly transfected CV-1 cells (MTV-TREp-LUC reporter). It is filed as cell-based. Also on record: expressed in transfected cells; host or cells: CV-1 cells. The source says: (§2) Prostate cancer is one of the most common cancers in European and American males and has a high mortality rate (Landis et al, 1998; Rosenthal, 1998). Early disease is managed conservatively in Europe although in selected patients surgery is curative. In advanced disease, androgen ablation can produce symptomatic improvement, but the tumour often re-emerges in an androgen- independent and incurable form. One proposed treatment for androgen-independent prostate carcinoma is differentiation ther- apy, in which agents such as all-trans-retinoic acid (ATRA), 9-cis- retinoic acid and 1, 25-dihydroxyvitamin D3 (D3 ) are used to induce growth arrest, differentiation and sometimes apoptosis of the tumour cells (Liang et al, 1999; de Vos et al, 1997; Skowronski et al, 1994; Hedlund et al, 1997). ATRA and synthetic analogues exert their biological effects by binding to two families of retinoid receptors, the RARs (RAR, RAR and RAR) and the RXRs (RXR, RXR and RXR). These are ligand-dependent transcription factors of the steroid/thyroid hormone nuclear receptor superfamily (Chambon 1994; Boehm et al, 1995). Activated RARs bind to retinoic acid-responsive elements (RAREs) in the promoters of genes and thus regulate gene expression. They also antagonize the activity of the tran- scription factor AP1 and thereby down-regulate the expression of some AP1-activated genes (Nagpal et al, 1995). One approach to unravelling the contributions of RAR sub-types to these actions has been the development of synthetic retinoids with selective activities at individual RARs and RXRs. For example, the diaryl- acetylenic retinoids allow separation of transactivation and AP1 antagonism functions at RAR (Nagpal et al, 1995). Recently, compounds that are selective for particular RAR sub-types have been synthesized: these include both agonists and antagonists (Chandraratna, 1995; Teng et al, 1999; Johnson et al, 1999). The functional selectivity of these compounds may open the way to achieving differentiation or apoptosis of tumour cells with minimal systemic side effects (Chandraratna, 1995). […]

Test [5] addresses T2, RARβ. Briefly: Transactivation by RARβ in doubly transfected CV-1 cells (MTV-TREp-LUC reporter). It is filed as cell-based. Also on record: expressed in transfected cells; host or cells: CV-1 cells; key to EC50 transactivation RARβ: NA: inactive; WA: weak partial agonist.
From the text: as §2

The target in test [6] is T3, RARγ. Briefly: Transactivation by RARγ in doubly transfected CV-1 cells (MTV-TREp-LUC reporter). The class given is cell-based. Also on record: expressed in transfected cells; host or cells: CV-1 cells; key to EC50 transactivation RARγ: NA: inactive; WA: weak partial agonist.
From the text: as §2, with “1995).” for “1995). One approach to unravelling the contributions of RAR sub-types to these actions has been the development of synthetic retinoids with selective activities at individual RARs and RXRs. For example, the diaryl- acetylenic retinoids allow separation of transactivation and AP1 antagonism functions at RAR (Nagpal et al, 1995). Recently, compounds that are selective for particular RAR sub-types have been synthesized: these include both agonists and antagonists (Chandraratna, 1995; Teng et al, 1999; Johnson et al, 1999). The functional selectivity of these compounds may open the way to achieving differentiation or apoptosis of tumour cells with minimal systemic side effects (Chandraratna, 1995).”

The next test relates to LNCaP ITS+ cells. The experiment in a line: Plate colony formation (clonal proliferation) assay, serum-free (ITS+)-grown LNCaP. The class given is cell-based, human.
From the text: as §1

Another test has as its system PC3 ITS+ cells. The experiment in a line: Plate colony formation assay, serum-free (ITS+)-grown PC3. The class given is cell-based, human. Conditions: 14 days.
From the text: as §2

Another test deals with DU145 ITS+ cells. The experiment in a line: Plate colony formation assay, serum-free (ITS+)-grown DU145. The class given is cell-based, human. Conditions: 14 days.
From the text: as §2

Test [7] concerns LNCaP, PC3 and DU145 cells. The experiment in a line: Plate colony formation assay, stated over the three serum-free grown lines. The class given is cell-based, human. Conditions: stated over all three serum-free grown lines; read-out: concentration inhibiting colony formation by 50% (IC50).
From the text: as §1

The next test relates to breast carcinoma lines. Details: method as in Fanjul et al, 1998. As to conditions: low serum (0.5%); ref Fanjul et al, 1998; cited from earlier work.

Usually Kd stands for the equilibrium constant for the complex coming apart. The term EC50 denotes the concentration at which the effect is half-maximal.

Bounds are passed on as bounds.

Take `CC(C)N1CCC(C)(C)c2cc(C(=O)Nc3ccc(C(=O)O)c(F)c3)c(O)cc21` [AGN195153]: the equilibrium dissociation constant (Kd) at RARα [1] is 40 nM; on RARβ [2], over 5000 nM; on RARγ [3] it was over 5000 nM. On RARα [4], this compound registered an EC50 of 130 nM. For the same compound, at RARβ [5], the “EC50 transactivation RARβ” value was “WA”. Moreover, on RARγ [6], the “EC50 transactivation RARγ” value was “WA”.

Turning to `Cc1ccc(C2=CCC(C)(C)c3ccc(N=Nc4ccc(C(=O)O)cc4F)cc32)cc1` [AGN194431], the IC50 with LNCaP ITS+ cells (LNCaP, serum-free (ITS+), 14 days) was 99 nM; in the test with PC3 ITS+ cells, 104 nM; in the test on DU145 ITS+ cells it was 88 nM; in test [7] it was about 100 nM. Besides, the equilibrium dissociation constant (Kd) at RARα [1] amounted to 300 nM; on RARβ [2] it was 6 nM; on RARγ [3], 70 nM.

With “EGF: Epidermal growth factor (R & D, Abingdon, UK) (NSDSECPLSHDGYCLHDGVCMYIEALDKYACNCVVGYIGERCQYRDLKWWELR; UniProt P01133 971-1023, looked up)”, the “reversal of the inhibition of colony formation by 100 nM AGN194310” value with LNCaP ITS+ cells (EGF at 1, 10 and 20 ng/ml) is recorded as “did not reverse”.

Regarding `COCCOCOc1ccc(C(=O)/C=C/c2ccc(C(=O)O)cc2)cc1C12CC3CC(CC(C3)C1)C2` [MX781], the concentration abolishing cell proliferation in the test on breast carcinoma lines was over 1 µM.

For the compound `CC1(C)CCSc2ccc(C#Cc3ccc(C(=O)O)cn3)cc21` [AGN190299], the Kd was determined as 616 nM on RARα [1], 41 nM on RARβ [2] and 57 nM on RARγ [3]. For the same compound, the EC50 is over 1000 nM on RARα [4], 18 nM on RARβ [5] and 42 nM at RARγ [6].

These data come from PMC2364081, “Antagonists of retinoic acid receptors (RARs) are potent growth inhibitors of prostate carcinoma cells” (British Journal of Cancer, 2001).
